Here are results for five compounds from US12612416B2, “Modulators of cystic fibrosis transmembrane conductance regulator” (VERTEX PHARMACEUTICALS INCORPORATED, priority 2020, dated 2026).

Each structure is given as a SMILES string. Like-named read-outs stand apart in the source and are kept apart here.

In one data set the target is T1, F508del in NIH 3T3 cells (Homo sapiens, UniProt P13569, DEL508-508).
T1 construct: expressed in transfected cells
As to the kind of experiment: 3T3 assay: membrane potential optical assay for F508del correction. Type of data set: cell-based, mouse. Particulars: F508del NIH 3T3 cells; for EC50: compound incubation 18-24 hours at 37° C., forskolin activation; for 3T3 Max Activity: efficacy compared to lumacaftor in combination with acutely added 300 nM Ivacaftor. From the text: The assay utilizes fluorescent voltage sensing dyes to measure changes in membrane potential using a fluorescent plate reader (e.g., FLIPR III, Molecular Devices, Inc.) as a readout for increase in functional F508del in NIH 3T3 cells. The driving force for the response is the creation of a chloride ion gradient in conjunction with channel activation by a single liquid addition step after the cells have previously been treated with compounds and subsequently loaded with a voltage sensing dye.
To identify correctors of F508del, a single-addition HTS assay format was developed. This HTS assay utilizes fluorescent voltage sensing dyes to measure changes in membrane potential on the FLIPR III as a measurement for increase in gating (conductance) of F508del in F508del NIH 3T3 cells. The F508del NIH 3T3 cell cultures were incubated with the corrector compounds at a range of concentrations for 18-24 hours at 37° C., and subsequently loaded with a redistribution dye. The driving force for the response is a Cl^− ion gradient in conjunction with channel activation with forskolin in a single liquid addition step using a fluorescent plate reader such as FLIPR III.
Bath Solution #1: (in mM) NaCl 160, KCl 4.5, CaCl2) 2, MgCl2 1, HEPES 10, pH 7.4 with NaOH.
Chloride-free bath solution: Chloride salts in Bath Solution #1 (above) are substituted with gluconate salts.
NIH3T3 mouse fibroblasts stably expressing F508del are used for optical measurements of membrane potential. The cells are maintained at 37° C. in 5% CO2 and 90% humidity in Dulbecco's modified Eagle's medium supplemented with 2 mM glutamine, 10% fetal bovine serum, 1×NEAA, b-ME, 1×pen/strep, and 25 mM HEPES in 175 cm^2 culture flasks. For all optical assays, the cells were seeded at ˜20,000/well in 384-well Matrigel-coated plates. For the correction assays, the cells are cultured at 37° C. with and without compounds for 16-24 hours.

For data set [1] the following is noted: amide bond, HATU/DIEA, DMF, 25.0 °C.
For data set [2], the target named is T2, CFTR-mediated short-circuit current in F508del/MF-HBE cells (Homo sapiens, UniProt P13569, DEL508-508).
T2 construct: endogenous in cells; host or cells: primary human bronchial epithelial cells from CF subjects (F508del/MF)
As to the kind of experiment: HBE assay: Ussing chamber assay of CFTR-mediated short-circuit currents. Format: cell-based. The conditions noted are these: F508del/MF-HBE, 20% human serum. The procedure: Ussing chamber experiments were performed using human bronchial epithelial (HBE) cells derived from CF subjects heterozygous for F508del and a minimal function CFTR mutation (F508del/MF-HBE) and cultured as previously described (Neuberger T, Burton B, Clark H, Van Goor F Methods Mol Biol 2011:741:39-54). After four days the apical media was removed, and the cells were grown at an air liquid interface for >14 days prior to use.
To isolate the CFTR-mediated short-circuit (ISC) current, F508del/MF-HBE grown on Costar® Snapwell™ cell culture inserts were mounted in an Ussing chamber and the transepithelial ISC was measured under voltage-clamp recording conditions (Vhold=0 mV) at 37° C. The basolateral solution contained (in mM) 145 NaCl, 0.83K2HPO4, 3.3 KH2PO4, 1.2 MgCl2, 1.2 CaCl2), 10 Glucose, 10 HEPES (pH adjusted to 7.4 with NaOH) and the apical solution contained (in mM) 145 NaGluconate, 1.2 MgCl2, 1.2 CaCl2), 10 glucose, 10 HEPES (pH adjusted to 7.4 with NaOH) and 30 μM amiloride to block the epithelial sodium channel. Forskolin (20 μM) was added to the apical surface to activate CFTR, followed by apical addition of a CFTR inhibitor cocktail consisting of BPO, GlyH-101, and CFTR inhibitor 172 (each at 20 μM final assay concentration) to specifically isolate CFTR currents. The CFTR-mediated ISC (μA/cm^2) for each condition was determined from the peak forskolin response to the steady-state current following inhibition.
The activity of the CFTR corrector compounds on the CFTR-mediated ISC was determined in Ussing chamber studies as described above. The F508del/MF-HBE cell cultures were either incubated with the corrector compounds at a range of concentrations in combination with 1 μM Ivacaftor or were incubated with the corrector compounds at a single fixed concentration of 10 μM in combination with 1 μM Ivacaftor for 18-24 hours at 37° C. and in the presence of 20% human serum. The concentration of corrector compounds with 1 μM Ivacaftor during the 18-24 hours incubations was kept constant throughout the Ussing chamber measurement of the CFTR-mediated ISC to ensure compounds were present throughout the entire experiment.

T1 sequence (P13569 with tags, fused parts or gaps DEL508-508): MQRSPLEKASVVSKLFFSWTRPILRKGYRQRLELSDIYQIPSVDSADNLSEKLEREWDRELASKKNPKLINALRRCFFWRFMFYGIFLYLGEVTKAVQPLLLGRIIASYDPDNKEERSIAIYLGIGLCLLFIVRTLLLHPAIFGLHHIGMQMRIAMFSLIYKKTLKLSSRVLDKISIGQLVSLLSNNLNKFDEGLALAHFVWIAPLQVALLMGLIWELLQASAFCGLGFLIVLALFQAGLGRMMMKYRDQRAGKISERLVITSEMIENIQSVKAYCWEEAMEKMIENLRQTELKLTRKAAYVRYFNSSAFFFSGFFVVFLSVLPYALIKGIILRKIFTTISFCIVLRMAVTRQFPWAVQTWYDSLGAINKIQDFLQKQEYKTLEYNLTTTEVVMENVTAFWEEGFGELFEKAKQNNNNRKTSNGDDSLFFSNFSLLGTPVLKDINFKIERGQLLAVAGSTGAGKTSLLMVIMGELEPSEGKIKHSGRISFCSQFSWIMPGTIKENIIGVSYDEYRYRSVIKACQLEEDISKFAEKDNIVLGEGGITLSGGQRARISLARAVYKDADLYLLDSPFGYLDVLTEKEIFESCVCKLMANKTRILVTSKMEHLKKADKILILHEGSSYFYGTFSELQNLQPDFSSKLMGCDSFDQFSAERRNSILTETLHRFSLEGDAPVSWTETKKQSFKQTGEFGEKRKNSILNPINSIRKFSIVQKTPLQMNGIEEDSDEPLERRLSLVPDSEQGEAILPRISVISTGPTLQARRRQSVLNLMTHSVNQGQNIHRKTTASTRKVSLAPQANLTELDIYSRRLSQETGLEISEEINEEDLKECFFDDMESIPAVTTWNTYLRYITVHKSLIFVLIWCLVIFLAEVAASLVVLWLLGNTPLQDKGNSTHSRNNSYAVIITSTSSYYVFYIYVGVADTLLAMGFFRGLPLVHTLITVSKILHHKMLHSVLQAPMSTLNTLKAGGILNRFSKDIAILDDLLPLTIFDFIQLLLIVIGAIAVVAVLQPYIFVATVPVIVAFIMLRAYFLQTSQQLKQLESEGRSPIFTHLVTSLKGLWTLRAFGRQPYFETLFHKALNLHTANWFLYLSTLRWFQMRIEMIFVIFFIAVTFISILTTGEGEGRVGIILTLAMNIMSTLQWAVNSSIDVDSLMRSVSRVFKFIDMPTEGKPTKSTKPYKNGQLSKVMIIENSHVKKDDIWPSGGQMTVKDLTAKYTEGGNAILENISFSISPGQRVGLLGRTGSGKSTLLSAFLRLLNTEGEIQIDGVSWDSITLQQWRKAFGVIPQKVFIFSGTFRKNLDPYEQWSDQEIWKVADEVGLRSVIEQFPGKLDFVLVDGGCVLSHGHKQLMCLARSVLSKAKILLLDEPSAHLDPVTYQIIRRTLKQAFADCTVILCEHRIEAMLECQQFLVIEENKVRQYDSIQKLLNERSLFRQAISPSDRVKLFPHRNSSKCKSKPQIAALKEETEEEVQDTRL
T2 sequence (P13569 with tags, fused parts or gaps DEL508-508): as above

As a reminder, the EC50 is the concentration that produces a half-maximal response. In the case of `Cc1cccc(C)c1-c1cc2nc(n1)NS(=O)(=O)c1cccc(c1)NC(=O)CCCC2` [Compound 12], on F508del in NIH 3T3 cells, the 50% effective concentration (EC50) lay in the range of 1 to 3 µM and the “3T3 Max Activity” value is listed as “+++ (+++ is >60%)”.
In the case of `Cc1cccc(C)c1-c1cc2nc(n1)NS(=O)(=O)c1cccc(c1)NC(=O)c1cccc(c1)C2` [Compound 2, 5-(2,6-Dimethylphenyl)-9 λ6-thia-6,8,15,23-tetraazatetracyclo [15.3.1.13,7.110,14]tricosa-1(21),3(23),4,6,10,12,14(22),17,19-nonaene-9,9,16-trione], at F508del in NIH 3T3 cells, the half-maximal effective concentration (EC50) lay within 1 to 3 µM and the “3T3 Max Activity” value is “+++ (+++ is >60%)”. The ring closure, yield after HPLC in data set [1] (from Cc1cccc(C)c1-c1cc(Cc2cccc(C(=O)O)c2)nc(NS(=O)(=O)c2cccc(N)c2)n1, 14-membered ring, 86.8 mM, 0.083 h, 3 steps) was determined as 14%.
Take `Cc1cccc(C)c1-c1cc2nc(n1)NS(=O)(=O)c1cccc(c1)NC(=O)CCCCC2` [Compound 1, 6-(2,6-dimethylphenyl)-2,2-dioxo-2 λ6-thia-3,5,15,21-tetrazatricyclo[14.3.1.14,8]henicosa-1(20),4(21),5,7,16,18-hexaen-14-one]: at F508del in NIH 3T3 cells, the EC50 was below 1 µM and the “3T3 Max Activity” value is “+++ (+++ is >60%)”. In data set [1] (from Cc1cccc(C)c1-c1cc(CCCCCC(=O)O)nc(NS(=O)(=O)c2cccc(N)c2)n1, 15-membered ring, 33.5 mM, 0.083 h, 2 steps), the ring closure, yield after HPLC turned out to be 40%.
`Cc1cccc(C)c1-c1cc2nc(n1)NS(=O)(=O)c1cccc(c1)C(=O)N(Cc1nccc(N(C)C(C)C)n1)[C@H](CC(C)C)CC2` [Compound 60, (11S)-6-(2,6-dimethylphenyl)-11-isobutyl-12-[[4-[isopropyl(methyl)amino]pyrimidin-2-yl]methyl]-2,2-dioxo-2λ^6-thia-3,5,12,19-tetrazatricyclo[12.3.1.14,8]nonadeca-1(18),4(19),5,7,14,16-hexaen-13-one]: the “HBE Max. activity” value in data set [2] (in combination with 1 μM Ivacaftor, compared to known Vertex corrector with 18 μM Tezacaftor and 1 μM Ivacaftor) is listed as “+++ (+++ is >60%)”. Moreover, in data set [2] (range of concentrations in combination with 1 μM Ivacaftor, 18-24 hours), the EC50 is below 1 µM. Besides, in data set [1] (from Cc1cccc(C)c1-c1cc(CC[C@@H](CC(C)C)NCc2nccc(N(C)C(C)C)n2)nc(NS(=O)(=O)c2cccc(C(=O)O)c2)n1, 13-membered ring, 12.4 mM, 2.0 h), the ring closure, yield after HPLC was found to be 49%.
`Cc1cccc(C)c1-c1cc2nc(n1)NS(=O)(=O)c1cccc(c1)NC(=O)CCC2` [Compound 13]: at F508del in NIH 3T3 cells, the concentration for a half-maximal effect (EC50) is 1 to 3 µM and the “3T3 Max Activity” value is listed as “+++ (+++ is >60%)”.
